11 compounds from patent US10533014B2, “Immunoregulatory agents” (Flexus Biosciences, Inc., priority 2014, dated 2020) can be followed below.

pIC50: −log10 of the molar value.

The target of the assay is T1, human IDO1 (Homo sapiens, UniProt P14902).
T1 construct: expressed in transfected cells
T1 sequence (P14902 whole entry): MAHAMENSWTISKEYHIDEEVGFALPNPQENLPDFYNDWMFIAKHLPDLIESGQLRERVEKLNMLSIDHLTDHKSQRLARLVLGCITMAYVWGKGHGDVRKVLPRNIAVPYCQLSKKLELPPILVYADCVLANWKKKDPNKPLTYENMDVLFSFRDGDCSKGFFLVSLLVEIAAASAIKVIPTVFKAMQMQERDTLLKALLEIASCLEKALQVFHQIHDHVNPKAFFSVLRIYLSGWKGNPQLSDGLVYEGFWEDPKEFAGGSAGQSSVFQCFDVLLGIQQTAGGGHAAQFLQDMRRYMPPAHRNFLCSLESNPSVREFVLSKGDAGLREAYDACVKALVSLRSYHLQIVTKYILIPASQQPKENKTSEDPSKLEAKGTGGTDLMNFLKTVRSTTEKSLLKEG
The assay is described as follows: IDO inhibition assay in HEK293 cells stably expressing human IDO1 (Example 252). In kind it is cell-based. To be noted: 20 hours incubation, kynurenine by Ehrlich reagent, absorbance at 490 nm, read-out: HEK Human IDO-1 Potency. Here is the method: 1HEK293 cells were transfected with a pCDNA-based mammalian expression vector harboring human IDO1 cDNA (NM 002164.2) by electroporation. They were cultured in medium (DMEM with 10% FBS) containing 1 mg/ml G418 for two weeks. Clones of HEK293 cells that stably expressed human IDO1 protein were selected and expanded for IDO inhibition assay.
The human IDO1/HEK293 cells were seeded at 10,000 cells per 50 μL per well with RPMI/phenol red free media contains 10% FBS in a 384-well black wall clear bottom tissue culture plate (Matrix Technologies LLC) 100 nL of certain concentration of compound was then added to each well using ECHO liquid handling systems. The cells were incubated for 20 hours in 37° C. incubator with 5% CO2.
The compound treatments were stopped by adding Trichloroacetic Acid (Sigma-Aldrich) to a final concentration at 0.2%. The cell plate was further incubated at 50° C. for 30 minute. The equal volume supernatant (20 μL) and 0.2% (w/v) Ehrlich reagent (4-dimethylaminobenzaldehyde, Sigma-Aldrich) in glacial acetic acid were mixed in a new clear bottom 384-well plate. This plate was then incubated at room temperature for 30 minute. The absorbance at 490 nm was measured on Envision plate reader.
On to `C[C@@H](C(=O)Nc1cccc(C(F)F)c1)[C@H]1CC[C@@H](c2ccnc3ccc(F)cc32)CC1` (relative stereo) [Example 63, (R)-N-(3-(difluoromethyl)phenyl)-2-((cis)-4-(6-fluoroquinolin-4-yl)cyclohexyl)propanamide], for which the pIC50 was over 7.30.

Turning to `CC(C(=O)O)c1ccc(C[C@@H](C(=O)Nc2ccc(Cl)cc2)[C@H]2CC[C@@H](c3ccnc4ccccc43)CC2)cc1` (single isomer, unassigned) [Example 87b], the pIC50 is over 7.30.

`CC(C(=O)Nc1ccc(Cl)cc1)C1CCC(c2ccnc3c2ncn3C)CC1` (mixture of isomers) [Example 250, (+/−)-Cis and trans-N-(4-chlorophenyl)-2-(4-(3-methyl-3H-imidazo[4,5-b]pyridin-7-yl)cyclohexyl)propanamide]: the pIC50 was over 6.60.

Regarding `O=C(C[C@H]1CC[C@@H](c2ccnc3ccc(F)cc32)CC1)NC1CCCCC1` [Example 142, N-cyclohexyl-2-((cis)-4-(6-fluoroquinolin-4-yl)cyclohexyl) acetamide], the pIC50 is over 6.60.

As for `COCC(C(=O)Nc1ccc(Cl)cc1)N1CCN(c2ccnc3ccc(F)cc23)CC1` (single isomer, unassigned) [Example 136, N-(4-chlorophenyl)-2-(4-(6-fluoroquinolin-4-yl)piperazin-1-yl)-3-methoxypropanamide], the pIC50 was under 6.60.

As for “N-(4-chlorophenyl)-2-(cis-4-(6-fluoroquinolin-4-yl)-1-hydroxycyclohexyl)propanamide [Example 231]”, the pIC50 is over 6.60.

On to “N-(4-chlorophenyl)-2-(cis-4-(6-fluoroquinolin-4-yl)-1-hydroxycyclohexyl)propanamide [Example 232]”, for which the pIC50 was over 7.30.

`CC(C(=O)O)c1ccc(C[C@@H](C(=O)Nc2ccc(Cl)cc2)[C@H]2CC[C@@H](c3ccnc4ccc(F)cc43)CC2)cc1` (single isomer, unassigned) [Example 139]: the pIC50 was over 7.30.

As for “N-(4-chlorophenyl)-2-(trans-4-(6-fluoroquinolin-4-yl)-1-hydroxycyclohexyl)propanamide [Example 229]”, the pIC50 was over 7.30.

For `C[C@@H](C(=O)NC1CCCCC1)[C@H]1CC[C@@H](c2ccnc3ccc(F)cc32)CC1` (relative stereo) [Example 141, (R)-N-cyclohexyl-2-((cis)-4-(6-fluoroquinolin-4-yl)cyclohexyl) propanamide], the pIC50 is over 7.30.

Take “N-(4-chlorophenyl)-2-(trans-4-(6-fluoroquinolin-4-yl)-1-hydroxycyclohexyl)propanamide [Example 230]”: the pIC50 is over 6.60.
